Data published in PubChem BioAssay AID248 (DTP/NCI, 2004).
“And” between values parts separate entries of the source, which are not always exact repeats. Equal values may be shown once. Toxic doses and inconclusive results are not listed. Rule as the data show it: active = T/C of 150% or more; inactive = T/C below 125%.

System: L1210 leukemia ip in BDF1 mice, survival T/C
Test: NCI In Vivo Anticancer Drug Screen. Data for tumor model L1210 Leukemia (intraperitoneal) in B6D2F1 (BDF1) mice
Conditions: endpoint: mean survival time, higher = longer survival
In short: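 Transplanted-tumor mice were given test agent; controls received vehicle only. Survival readings from the two groups were divided (treated over control).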

[1] = dose: 100.0 mg/kg/injection, schedule: Q04DX003 (ip), vehicle: saline with Tween-80
[2] = dose: 200.0 mg/kg/injection, schedule: Q04DX003 (ip), vehicle: saline with Tween-80
[3] = dose: 400.0 mg/kg/injection, schedule: Q04DX003 (ip), vehicle: saline with Tween-80
[4] = dose: 100.0 mg/kg/injection, schedule: Q01DX009 (ip), vehicle: saline with Tween-80
[5] = dose: 200.0 mg/kg/injection, schedule: Q01DX009 (ip), vehicle: saline with Tween-80
[6] = dose: 400.0 mg/kg/injection, schedule: Q01DX009 (ip), vehicle: saline with Tween-80
[7] = dose: 12.5 mg/kg/injection, schedule: Q01DX009 (ip), vehicle: saline
[8] = dose: 25.0 mg/kg/injection, schedule: Q01DX009 (ip), vehicle: saline
[9] = dose: 100.0 mg/kg/injection, schedule: Q01DX001 (ip), vehicle: saline
[10] = dose: 100.0 mg/kg/injection, schedule: Q01DX009 (ip), vehicle: Klucel (hydroxypropylcellulose) (HPC)
[11] = dose: 200.0 mg/kg/injection, schedule: Q01DX009 (ip), vehicle: Klucel (hydroxypropylcellulose) (HPC)
[12] = dose: 400.0 mg/kg/injection, schedule: Q01DX009 (ip), vehicle: Klucel (hydroxypropylcellulose) (HPC)

Measured: T/C

CCOC(CSC)OCC
inactive: dose: 100.0 mg/kg/injection, schedule: Q01DX009 (sc), vehicle: olive oil, sesame oil, peanut oil 99 % of control | dose: 100.0 mg/kg/injection, schedule: Q04DX003 (sc), vehicle: olive oil, sesame oil, peanut oil 102 % of control | dose: 200.0 mg/kg/injection, schedule: Q01DX009 (sc), vehicle: olive oil, sesame oil, peanut oil 94 % of control | dose: 200.0 mg/kg/injection, schedule: Q04DX003 (sc), vehicle: olive oil, sesame oil, peanut oil 96 % of control | dose: 400.0 mg/kg/injection, schedule: Q01DX009 (sc), vehicle: olive oil, sesame oil, peanut oil 91 % of control | dose: 400.0 mg/kg/injection, schedule: Q04DX003 (sc), vehicle: olive oil, sesame oil, peanut oil 94 % of control

C(#CCOc1ccccc1)COc1ccccc1
inactive: [1] 97 % of control | [2] 97 % of control | [3] 97 % of control

CC12CCC3c4ccc(O)cc4CCC3C1CCC2O (stereo not drawn)
inactive: dose: 50.0 mg/kg/injection, schedule: Q01DX001 (sc), vehicle: steriod suspending solution 105 % of control and 111 % of control | dose: 100.0 mg/kg/injection, schedule: Q01DX001 (sc), vehicle: steriod suspending solution 98 % of control and 115 % of control | dose: 200.0 mg/kg/injection, schedule: Q01DX001 (sc), vehicle: steriod suspending solution 98 % of control and 103 % of control | dose: 400.0 mg/kg/injection, schedule: Q01DX001 (sc), vehicle: steriod suspending solution 101 % of control and 109 % of control

O=C(CCCN1CCC2(CC1)C(=O)NCN2c1ccccc1)c1ccccc1
inactive: dose: 10.0 mg/kg/injection, schedule: Q04DX003 (ip), vehicle: Klucel (hydroxypropylcellulose) (HPC) 96 % of control | dose: 20.0 mg/kg/injection, schedule: Q04DX003 (ip), vehicle: Klucel (hydroxypropylcellulose) (HPC) 98 % of control | dose: 40.0 mg/kg/injection, schedule: Q04DX003 (ip), vehicle: Klucel (hydroxypropylcellulose) (HPC) 101 % of control

Cc1ccc(S(=O)(=O)Nc2ccccc2SSc2ccccc2NS(=O)(=O)c2ccc(C)cc2)cc1
inactive: [4] 97 % of control | [1] 101 % of control | [5] 97 % of control | [2] 97 % of control | [6] 90 % of control | [3] 95 % of control

CCCCNC(=O)C1C=C2c3cccc4c3C(CN4)CC2N(C)C1 (stereo not drawn)
inactive: dose: 25.0 mg/kg/injection, schedule: Q01DX009 (ip), vehicle: saline with Tween-80 87 % of control | dose: 50.0 mg/kg/injection, schedule: Q01DX009 (ip), vehicle: saline with Tween-80 89 % of control

O=C(O)/C(=C\c1ccccc1Br)c1ccc(C(F)(F)F)cc1[N+](=O)[O-]
inactive: dose: 100.0 mg/kg/injection, schedule: Q01DX009 (ip), vehicle: saline sonified 109 % of control | dose: 200.0 mg/kg/injection, schedule: Q01DX009 (ip), vehicle: saline sonified 98 % of control

[Br][Ce]([Br])[Br]
inactive: dose: 100.0 mg/kg/injection, schedule: Q04DX003 (ip), vehicle: saline 91 % of control | dose: 200.0 mg/kg/injection, schedule: Q04DX003 (ip), vehicle: saline 94 % of control | dose: 400.0 mg/kg/injection, schedule: Q04DX003 (ip), vehicle: saline 94 % of control

CCc1cccc(CC)c1NC(=O)CCl
inactive: dose: 100.0 mg/kg/injection, schedule: Q04DX002 (ip), vehicle: Klucel (hydroxypropylcellulose) (HPC) 111 % of control | dose: 100.0 mg/kg/injection, schedule: Q04DX003 (ip), vehicle: Klucel (hydroxypropylcellulose) (HPC) 108 % of control | dose: 200.0 mg/kg/injection, schedule: Q04DX002 (ip), vehicle: Klucel (hydroxypropylcellulose) (HPC) 104 % of control | dose: 400.0 mg/kg/injection, schedule: Q04DX002 (ip), vehicle: Klucel (hydroxypropylcellulose) (HPC) 90 % of control | dose: 400.0 mg/kg/injection, schedule: Q04DX003 (ip), vehicle: Klucel (hydroxypropylcellulose) (HPC) 95 % of control

CN(C)c1ccc2nc3ccc(=[N+](C)C)cc-3sc2c1
inactive: dose: 5.0 mg/kg/injection, schedule: Q01DX Z (ip), vehicle: carboxymethylcellulose (CMC) 93 % of control and 90 % of control | dose: 10.0 mg/kg/injection, schedule: Q01DX Z (ip), vehicle: carboxymethylcellulose (CMC) 100 % of control and 92 % of control | [7] 107 % of control | dose: 20.0 mg/kg/injection, schedule: Q01DX Z (ip), vehicle: carboxymethylcellulose (CMC) 98 % of control and 92 % of control | dose: 25.0 mg/kg/injection, schedule: Q01DX001 (ip), vehicle: saline 102 % of control | [8] 94 % of control | dose: 40.0 mg/kg/injection, schedule: Q01DX Z (ip), vehicle: carboxymethylcellulose (CMC) 105 % of control | dose: 50.0 mg/kg/injection, schedule: Q01DX001 (ip), vehicle: saline 97 % of control | dose: 50.0 mg/kg/injection, schedule: Q01DX009 (ip), vehicle: saline 103 % of control | [9] 108 % of control

Cn1c(=O)cc(CNc2ccc(-c3ccccc3)cc2)c2ccccc21
inactive: [9] 92 % of control | dose: 200.0 mg/kg/injection, schedule: Q01DX001 (ip), vehicle: saline 90 % of control | dose: 400.0 mg/kg/injection, schedule: Q01DX001 (ip), vehicle: saline 88 % of control

CCCC(Cc1ccccc1)N1CCCC1 (stereo not drawn)
inactive: dose: 3.12 mg/kg/injection, schedule: Q01DX009 (ip), vehicle: saline 103 % of control | dose: 6.25 mg/kg/injection, schedule: Q01DX009 (ip), vehicle: saline 103 % of control | [7] 97 % of control | [8] 103 % of control | dose: 25.0 mg/kg/injection, schedule: Q04DX003 (ip), vehicle: saline 92 % of control | dose: 50.0 mg/kg/injection, schedule: Q04DX003 (ip), vehicle: saline 95 % of control

CCOC(=O)c1cc(=O)[nH]c2cc(N)ccc12
inactive: [10] 86 % of control | [11] 89 % of control | [12] 86 % of control

CCC1(c2ccccc2)OC1C(=O)OCC(C)C (stereo not drawn)
inactive: dose: 100.0 mg/kg/injection, schedule: Q04DX002 (ip), vehicle: saline 112 % of control | dose: 200.0 mg/kg/injection, schedule: Q04DX002 (ip), vehicle: saline 97 % of control | dose: 400.0 mg/kg/injection, schedule: Q04DX002 (ip), vehicle: saline 101 % of control

C/C(=C\C(C)(C)c1ccccc1)c1ccccc1
inactive: dose: 50.0 mg/kg/injection, schedule: Q04DX003 (ip), vehicle: other 92 % of control | dose: 100.0 mg/kg/injection, schedule: Q04DX003 (ip), vehicle: other 92 % of control | dose: 200.0 mg/kg/injection, schedule: Q04DX003 (ip), vehicle: other 100 % of control

O=C(Nc1cc(C2=NCCN2)cc(C2=NCCN2)c1)c1ccc(C(=O)Nc2cc(C3=NCCN3)cc(C3=NCCN3)c2)cc1
inactive: dose: 0.37 mg/kg/injection, schedule: Q01DX Z (ip), vehicle: methylcellulose (MC) 94 % of control | dose: 0.75 mg/kg/injection, schedule: Q01DX Z (ip), vehicle: methylcellulose (MC) 111 % of control | dose: 1.5 mg/kg/injection, schedule: Q01DX Z (ip), vehicle: methylcellulose (MC) 101 % of control | dose: 2.0 mg/kg/injection, schedule: Q01DX Z (ip), vehicle: carboxymethylcellulose (CMC) 108 % of control | dose: 3.0 mg/kg/injection, schedule: Q01DX Z (ip), vehicle: methylcellulose (MC) 95 % of control | dose: 4.0 mg/kg/injection, schedule: Q01DX Z (ip), vehicle: carboxymethylcellulose (CMC) 92 % of control | dose: 15.0 mg/kg/injection, schedule: Q01DX Z (ip), vehicle: carboxymethylcellulose (CMC) 92 % of control

O=C1C=CC2C=CC1C(C(=O)O)C2C(=O)O (stereo not drawn) (tested in a mixture with another compound)
inactive: dose: 100.0 mg/kg/injection, schedule: Q01DX001 (ip), vehicle: saline with Tween-80 95 % of control | dose: 200.0 mg/kg/injection, schedule: Q01DX001 (ip), vehicle: saline with Tween-80 90 % of control | dose: 400.0 mg/kg/injection, schedule: Q01DX001 (ip), vehicle: saline with Tween-80 92 % of control

CC(=O)COc1ccc(Cl)cc1Cl
inactive: [4] 98 % of control | [5] 97 % of control | [6] 92 % of control

C(=N\Nc1nc2ccccc2s1)/c1ccncc1
inactive: [10] 106 % of control | [11] 96 % of control | [12] 98 % of control
